# Results from patent publication US7745465B2, “Method of enhancing cellular production of molecular chaperone, hydroxylamine derivatives useful for enhancing the chaperone production and the preparation thereof” (CytRx Corporation, priority 1995, dated 2010).
# Key:
# [1] = tested on: H9c2 rat heart muscle cell; assay: Serum deprivation, cell viability by MTT test (H9c2); assay type: cell-based; conditions: serum deprived H9c2, 10^−5 M, control 100%, serum deprived alone 50.5%, read-out: relative cell viability
# Protocol: Experiments were carried out using WEH1 mouse fibrosarcoma and H9c2 rat heart muscle cell lines divided into three groups: • control (10% FCS fetal calf serum) • serum deprived • N-[2-hydroxy-3-(1-piperidinyl)propoxy]-3-pyridinecarboximidoyl chloride maleate (10^−5 M) treated and serum deprived 1.2(i) Serum Deprivation and MTT Test
# We have screened various cell lines, drug concentrations, pretreatment and deprivation times and we have found the most appropriate conditions as follows: […] H9c2 rat heart muscle cell (n=6) and WEHI mouse fibrosarcoma cell (n=7) have been plated on 24 well plates in 10% FCS DMEM (Dulbecco modified Eagle's medium) and incubated for 2 hours at 37 C, 5% CO2. Medium has been discarded and replaced by 10% FCS DMEM containing 10^−5 M N-[2-hydroxy-3-(1-piperidinyl)propoxy ]-3-pyridinecarboximidoyl chloride maleate. […] Cell viability was measured by MTT test based on the method of Plumb et al. (Cancer Res. 49: 4435-4444 (1989)) The tetrazolium salt method involving conversion of MTT (3-(4,5-dimethylthiazol-2yl)-2,5-diphenyltetrazolium bromide) to colored formazan by alive cells, served as an indirect measurement of cell viability. […] O.D. of the plates was read at 570 nm on an ELISA plate reader (Labsystems Multiskan Biochromatic type:348). […] Relative cell viability was calculated defining control group as 100%.
# [2] = tested on: hsp72; assay: hsp72 in skin of UVB exposed human skin grafted SCID mice (immunofluorescence, Western blot); assay type: in vivo; conditions: 5.0 mg/kg i.p.
# Protocol: Human skin tissues were grafted onto immunodeficiency (SCID) mice. The experimental protocol involved a treatment of one group of the mice with N-[2-hydroxy-3-(1-piperidinyl)propoxy]-3-piridinecarboxymidoyl chloride maleate (5.0 mg/kg i.p.) and the other with the solvent NaCl solution (300 μl) for 7 days. On day 8, both groups of mice were exposed to UVB light (100 mJ/cm^2) 24 hours subsequent to the exposure, skin biopsies were taken for histological (sections stained with hematoxylin and eosin), and immunohistological examinations (indirect immunoflourescence technique with monoclonal antibody, mAB).
# All steps were carried out at room temperature. Skin (about 9-35 mg) was cut into tiny pieces and homogenized with frosted-glass pestle in Eppendorf tubes for 2 min. in ([…]) of 2 times concentrated Laemmli buffer (65 mM Tris-HCI, pH 6.8: 5% β-mercaptoethanol; 2% SDS; 10% glycerol; 0.1% bromophenolblue; all of these materials were Sigma products). Then samples were solubilized for another 60 min. with continuous shaking. The homogenates were centrifuged at 10.000 rpm for 10 min. prior loading to the gel.
# Electrophoresis were carried out on 8% polyacrylamide gel with 10 μl of sample per lane at constant voltage (50 V) for overnight. […]
# [3] = tested on: K562 cells; assay: Sensitivity of K562 cells to lysis mediated by NK cells; assay type: cell-based, human; conditions: heat shock plus treatment
# [4] = tested on: HSP72; assay: Heat stress induced hsp72 level in L-929 mouse fibroblast cells; assay type: cell-based; conditions: L-929 cells, 10^−5 M, treatment preceded heat stress
# Protocol: From the applied cells the 3T3 and L-929 mouse fibroblasts were cultured in MEM medium and grew in monolayer, the U-937 human leukemia cells were maintained in RPMI-1640 medium, in suspension culture, while the HeLa human epithelial cells were cultured in DMEM medium and in monolayer form. Cell cultures were maintained as described in example 6.2 (a) with the difference that cells were cultured in the above mentioned culture mediums.
# Experiments were carried out applying stress before and after the drug treatment. Stress was provoked by heat, by chemical agent, HgCl2 treatment. The test compounds were applied in the treatments at the 10^−5 M concentration.
# The experiments on 3T3 cell applying heat stress were performed as described in the 6.2. (c) point of example 6, with the difference that stress was induced by a 30 min. exposure at 43° C. temperature and treatment with the test compounds was performed 15 min. before or 100 min. after the heat stress.
# Experiments using heat shock on U-937 leukemia and L-929 mouse fibroblast cells were carried out similarly as described above, but drug treatments in these tests always preceded the heat stress. The compound N-[2-hydroxy-3-(1-piperidinyl)-propoxy]-3-pyridine-carboximidoyl chloride maleate was tested at the 10^−5 M concentration under these experimental conditions.
# [5] = tested on: Hsp72; assay: Heat stress induced hsp72 expression in rat testicular explant; assay type: cell-based; conditions: 10^−5 M, 15 min. before 43° C. 30 min.
# Summary of the method: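 Testicular tubule explants from 200 g CFY rats in MEM with 10% FBS, preincubated 1 h at 37° C., then treated with 10^−5 M compound for 15 min. Heat shock at 43° C. for 30 min; induced hsp72 measured after further 6 h at 37° C.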
smiles,measurement,setting,value
O=C(O)/C=C\C(=O)O.OC(CON=C(Cl)c1cccnc1)CN1CCCCC1 (stereo not drawn) [N-[2-hydroxy-3-(1-piperidinyl)-propoxy]3-pyridinecarboximidoyl chloride maleate],viability at 10 µM,[1],82.8%
same,amount of hsp72 by Western blotting,"[2]; UVB 100 mJ/cm^2, biopsy after 24 h",increased amount of hsp72
same,hsp72 staining by indirect immunofluorescence,"[2]; UVB 100 mJ/cm^2, biopsy after 24 hours","intense, linear staining along the basement membrane zone"
same,lisability of K562 cells by NK cells,[3],synergistic effect on the lisability of K562 cells
same,increase in the heat stress induced hsp72 level,[4],more than 50%
same,Level of hsp72 relative to the stress exposed control,[5],+ + +
